One assay has as its system M-NFS-60 cells. The assay can be described thus: M-NFS-60 cell proliferation assay (Alamar Blue). The class given is cell-based, mouse. Conditions: Mus musculus; M-NFS-60 cell proliferation; read-out: CSF1R M-NFS-60 CTB:IC50. The essentials:
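Mouse M-NFS-60 cells growing on 20 ng/mL M-CSF in RPMI/10% FBS were exposed to compounds (9 half-log concentrations, 0.5% DMSO) for 72 h at 37 °C. Viability read by Alamar Blue fluorescence (ex 560/em 590 nm, 3 h). IC50 = 50% proliferation inhibition versus control, mean of duplicates.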
Background: Alamar Blue is a resazurin reagent that responds to reducing activity.

For a further assay, the target named is T1, PDGFRβ (Homo sapiens, UniProt P09619).
T1 construct: made in house
T1 sequence (P09619 33-1106): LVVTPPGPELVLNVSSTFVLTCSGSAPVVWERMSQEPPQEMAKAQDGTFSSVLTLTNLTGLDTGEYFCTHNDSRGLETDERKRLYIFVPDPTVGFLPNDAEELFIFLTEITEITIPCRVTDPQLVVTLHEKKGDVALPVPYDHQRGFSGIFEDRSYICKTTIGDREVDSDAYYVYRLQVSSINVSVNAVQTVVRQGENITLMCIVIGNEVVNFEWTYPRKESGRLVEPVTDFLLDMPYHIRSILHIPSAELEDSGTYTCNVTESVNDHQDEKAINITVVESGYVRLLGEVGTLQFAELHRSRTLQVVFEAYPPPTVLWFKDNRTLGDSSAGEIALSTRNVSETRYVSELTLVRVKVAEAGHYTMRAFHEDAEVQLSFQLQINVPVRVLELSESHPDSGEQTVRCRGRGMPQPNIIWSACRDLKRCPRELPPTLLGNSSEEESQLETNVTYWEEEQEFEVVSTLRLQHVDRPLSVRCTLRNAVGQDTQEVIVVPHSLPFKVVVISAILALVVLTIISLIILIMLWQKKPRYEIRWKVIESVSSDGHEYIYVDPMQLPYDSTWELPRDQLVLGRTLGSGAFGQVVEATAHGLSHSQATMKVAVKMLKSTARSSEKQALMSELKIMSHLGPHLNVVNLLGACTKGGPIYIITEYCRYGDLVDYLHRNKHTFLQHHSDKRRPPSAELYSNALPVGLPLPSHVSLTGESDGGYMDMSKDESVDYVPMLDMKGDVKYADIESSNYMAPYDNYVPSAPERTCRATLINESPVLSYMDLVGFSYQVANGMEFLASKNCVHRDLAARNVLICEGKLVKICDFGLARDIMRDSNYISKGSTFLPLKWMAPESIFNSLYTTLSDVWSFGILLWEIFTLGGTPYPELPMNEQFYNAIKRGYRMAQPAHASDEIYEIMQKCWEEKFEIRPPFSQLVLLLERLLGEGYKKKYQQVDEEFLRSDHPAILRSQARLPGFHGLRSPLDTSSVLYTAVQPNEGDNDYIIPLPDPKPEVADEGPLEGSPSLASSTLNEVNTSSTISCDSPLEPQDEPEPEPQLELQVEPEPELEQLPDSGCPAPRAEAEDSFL
As to the kind of experiment: Competition binding assay, PDGFRβ Kd. Conditions: competition binding. The essentials: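 Phage-fused or HEK-293/DNA-tagged kinase + ligand-coated streptavidin beads + compound, 1 h RT with shaking. Wash, elute with free ligand 30 min RT, qPCR of eluted kinase. Kd: 11-point 3-fold series.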

The next assay concerns the target CSF1R (Homo sapiens, UniProt P07333). The assay can be described thus: HEK293 CSF1R phosphorylation MSD assay. Conditions: HEK293 cells, M-CSF stimulated CSF1R phosphorylation, MSD; read-out: HEK293 pCSF1R M-CSF MSD:IC50. Details: expressed in transfected cells; host or cells: HEK293. The class given is cell-based. The essentials:
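HEK293 cells expressing CSF1R-FKBP were pretreated 2 h at 37° C with 9 half-log concentrations of compound (0.5% DMSO final), then stimulated 5 min with 50 ng/mL human M-CSF. Lysates captured on biotin-FK506 plates; phosphotyrosine detected by MSD electrochemiluminescence. IC50 versus DMSO, averaged from duplicate plates.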

Assay [1] addresses kinase panel containing either 386 or 392 distinct kinases. The assay can be described thus: Kinase selectivity score S10 from competition binding panel. Conditions: 10 μM, panel of 386 or 392 distinct kinases. The essentials: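 Compounds at 10 μM competed against immobilised affinity ligands for T7 phage-fused or HEK-293-expressed DNA-tagged kinases, 1 h at room temperature; bound kinase eluted and quantified by qPCR. S10 = fraction of distinct non-mutant kinases with percent of DMSO control below 10.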

For orientation: pIC50 means −log10 of the IC50, conventionally taken in molar units. For orientation: pKd means −log10 of the Kd, conventionally taken in molar units. Higher therefore signals a low Kd.

Molecules are shown by their SMILES. pIC50, pKd: −log10 of the molar value.

Sequence of CSF1R (P07333 20-972): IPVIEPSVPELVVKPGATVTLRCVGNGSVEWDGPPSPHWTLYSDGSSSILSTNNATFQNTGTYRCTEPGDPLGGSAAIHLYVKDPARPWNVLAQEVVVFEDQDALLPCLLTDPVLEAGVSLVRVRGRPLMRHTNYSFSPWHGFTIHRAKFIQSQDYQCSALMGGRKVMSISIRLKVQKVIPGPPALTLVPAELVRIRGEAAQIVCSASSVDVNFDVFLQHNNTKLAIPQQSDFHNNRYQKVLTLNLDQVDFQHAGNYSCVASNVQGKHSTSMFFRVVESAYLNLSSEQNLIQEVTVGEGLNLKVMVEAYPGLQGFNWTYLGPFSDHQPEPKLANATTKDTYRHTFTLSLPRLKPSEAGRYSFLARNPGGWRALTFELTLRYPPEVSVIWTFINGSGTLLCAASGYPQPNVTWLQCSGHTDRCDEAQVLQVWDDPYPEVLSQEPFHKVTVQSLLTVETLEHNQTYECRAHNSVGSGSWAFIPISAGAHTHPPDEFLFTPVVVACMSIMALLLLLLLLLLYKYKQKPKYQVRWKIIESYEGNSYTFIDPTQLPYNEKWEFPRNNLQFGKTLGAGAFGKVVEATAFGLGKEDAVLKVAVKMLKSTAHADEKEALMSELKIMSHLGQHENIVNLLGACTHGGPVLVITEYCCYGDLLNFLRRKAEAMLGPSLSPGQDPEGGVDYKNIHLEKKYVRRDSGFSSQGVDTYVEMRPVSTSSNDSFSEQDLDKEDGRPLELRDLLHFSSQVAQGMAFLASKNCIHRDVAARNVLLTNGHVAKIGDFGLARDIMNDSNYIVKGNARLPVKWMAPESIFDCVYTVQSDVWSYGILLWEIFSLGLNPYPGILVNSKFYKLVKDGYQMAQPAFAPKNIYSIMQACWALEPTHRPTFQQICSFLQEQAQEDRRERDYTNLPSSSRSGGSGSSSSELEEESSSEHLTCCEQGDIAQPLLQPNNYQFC

Consider `N#Cc1ccc2c(c1)ncn2Cc1ccc2nc(N[C@@H]3CCCC[C@H]3O)sc2c1` [Example 108, 1-((2-(((1R,2R)-2-hydroxycyclohexyl)amino)benzo[d]thiazol-6-yl)methyl)-1H-benzo[d]imidazole-5-carbonitrile], for which the results for the pIC50 with M-NFS-60 cells and at CSF1R were 6.40 to 7.30 and 6.70 to 7.30, respectively. In addition, on PDGFRβ, the negative-log Kd (pKd) is 5.70 to 6.30. The “Kinase specificity S(10)” value in assay [1] is listed as “A (A≤0.01)”.
As to `CC(C)(O)c1cnc2c(c1)ncn2Cc1ccc2nc(N[C@@H]3CCCC[C@H]3O)sc2c1` [Example 109, (1R,2R)-2-((6-((6-(2-hydroxypropan-2-yl)-3H-imidazo[4,5-b]pyridin-3-yl)methyl)benzo[d]thiazol-2-yl)amino)cyclohexanol], the negative-log IC50 (pIC50) in the assay on M-NFS-60 cells is 6.40 to 7.30; at CSF1R, 6.70 to 7.30. Moreover, the pKd on PDGFRβ is 6.30 to 7.30. The “Kinase specificity S(10)” value in assay [1] is on record as “A (A≤0.01)”.
Turning to `CC(=O)c1ccc2c(c1)ncn2Cc1ccc2nc(N[C@@H]3CCCC[C@H]3O)sc2c1` [Example 110, 1-(1-((2-(((1R,2R)-2-hydroxycyclohexyl)amino)benzo[d]thiazol-6-yl)methyl)-1H-benzo[d]imidazol-5-yl)ethanone], the results for the negative logarithm of the IC50 (pIC50) with M-NFS-60 cells and on CSF1R were 6.40 to 7.30 and not below 7.30, respectively. Also, the pKd at PDGFRβ was 6.30 to 7.30. For the same molecule, in assay [1], the “Kinase specificity S(10)” value is recorded as “A (A≤0.01)”.
Taken in the same sequence, the figures for `N#Cc1ccc2ncn(Cc3ccc4nc(N[C@@H]5CCCC[C@H]5O)sc4c3)c2c1` [Example 111, 1-((2-(((1R,2R)-2-hydroxycyclohexyl)amino)benzo[d]thiazol-6-yl)methyl)-1H-benzo[d]imidazole-6-carbonitrile] were 6.40 to 7.30, 6.70 to 7.30, 5.70 to 6.30 and “A (A≤0.01)”.
The like results for `CS(=O)(=O)c1ccc2c(c1)ncn2Cc1ccc2nc(N[C@@H]3CCCC[C@H]3O)sc2c1` [Example 112, (1R,2R)-2-((6-((5-(methylsulfonyl)-1H-benzo[d]imidazol-1-yl)methyl)benzo[d]thiazol-2-yl)amino)cyclohexanol] were, in that order, less than 5.82, 6.30 to 6.70, 5.70 to 6.30 and “A (A≤0.01)”.
As to `CS(=O)(=O)c1ccc2ncn(Cc3ccc4nc(N[C@@H]5CCCC[C@H]5O)sc4c3)c2c1` [Example 113, (1R,2R)-2-((6-((6-(methylsulfonyl)-1H-benzo[d]imidazol-1-yl)methyl)benzo[d]thiazol-2-yl)amino)cyclohexanol], the pIC50 in the assay with M-NFS-60 cells is less than 5.82; at CSF1R, 6.30 to 6.70. The same molecule gave a pKd at PDGFRβ of less than 5.70. Also, the “Kinase specificity S(10)” value in assay [1] was “A (A≤0.01)”.
Taken in the same sequence, the figures for `O[C@@H]1CCCC[C@H]1Nc1nc2ncc(Cn3cnc4cccnc43)cc2s1` [Example 114, (1R,2R)-2-((6-((3H-imidazo[4,5-b]pyridine-3-yl)methyl)thiazolo[4,5-b]pyridine-2-yl)amino)cyclohexanol] were less than 5.82, 6.70 to 7.30, 5.70 to 6.30 and “A (A≤0.01)”.
With `CC(O)c1cnc2c(c1)ncn2Cc1ccc2nc(N[C@@H]3CCCC[C@H]3O)sc2c1` (stereo partly drawn) [Example 115, (1R,2R)-2-((6-((6-((R,S)-1-hydroxyethyl)-3H-imidazo[4,5-b]pyridin-3-yl)methyl)benzo[d]thiazol-2-yl)amino)cyclohexanol], the pIC50 in the assay with M-NFS-60 cells is 6.40 to 7.30; at CSF1R, 6.70 to 7.30. Moreover, the pKd at PDGFRβ is 6.30 to 7.30. In addition, the “Kinase specificity S(10)” value in assay [1] is given as “A (A≤0.01)”.
Turning to `N#Cc1ccn2c(Cc3ccc4nc(N[C@@H]5CCCC[C@H]5O)sc4c3)cnc2c1` [Example 117, 3-((2-(((1R,2R)-2-hydroxycyclohexyl)amino)benzo[d]thiazol-6-yl)methyl)imidazo[1,2-a]pyridine-7-carbonitrile], the negative logarithm of the IC50 (pIC50) is 5.82 to 6.40 with M-NFS-60 cells and less than 6.30 at CSF1R. The same molecule gave a negative-log Kd (pKd) at PDGFRβ of 6.30 to 7.30. Besides, the “Kinase specificity S(10)” value in assay [1] is “A (A≤0.01)”.
For `O[C@@H]1CCCC[C@H]1Nc1nc2ccc(Cn3cnc4cncnc43)cc2o1` [Example 118, (1R,2R)-2-((6-((9H-purin-9-yl)methyl)benzo[d]oxazol-2-yl)amino)cyclohexanol], the pIC50 in the assay on M-NFS-60 cells was 5.82 to 6.40; on CSF1R, less than 6.30. Further, the “Kinase specificity S(10)” value in assay [1] is listed as “A (A≤0.01)”.
For `Cc1cc2ncn(Cc3ccc4nc(N[C@@H]5CCCC[C@H]5O)sc4c3)c2cc1C` [Example 119, (1R,2R)-2-((6-((5,6-dimethyl-1H-benzo[d]imidazol-1-yl)methyl)benzo[d]thiazol-2-yl)amino)cyclohexanol], the negative logarithm of the IC50 (pIC50) is 6.40 to 7.30 in the assay with M-NFS-60 cells and 6.70 to 7.30 on CSF1R. The same molecule showed a pKd on PDGFRβ not below 7.30. For the same molecule, the “Kinase specificity S(10)” value in assay [1] is “A (A≤0.01)”.
Taken in the same sequence, the figures for `CC(=O)c1ccc2ncn(Cc3ccc4nc(N[C@@H]5CCCC[C@H]5O)sc4c3)c2c1` [Example 120, 1-(1-((2-(((1R,2R)-2-hydroxycyclohexyl)amino)benzo[d]thiazol-6-yl)methyl)-1H-benzo[d]imidazol-6-yl)ethanone] were 6.40 to 7.30, 6.70 to 7.30, 6.30 to 7.30 and “B (0.01<B≤0.02)”.
As for `C#Cc1ccc2c(c1)ncn2Cc1ccc2nc(N[C@@H]3CCCC[C@H]3O)sc2c1` [Example 121, (1R,2R)-2-((6-((5-ethynyl-1H-benzo[d]imidazol-1-yl)methyl)benzo[d]thiazol-2-yl)amino)cyclohexanol], the negative-log IC50 (pIC50) in the assay on M-NFS-60 cells was 6.40 to 7.30; on CSF1R, 6.70 to 7.30. Also, the pKd on PDGFRβ was 6.30 to 7.30. In addition, the “Kinase specificity S(10)” value in assay [1] is reported as “A (A≤0.01)”.
Consider `C#Cc1ccc2ncn(Cc3ccc4nc(N[C@@H]5CCCC[C@H]5O)sc4c3)c2c1` [Example 122, (1R,2R)-2-((6-((6-ethynyl-1H-benzo[d]imidazol-1-yl)methyl)benzo[d]thiazol-2-yl)amino)cyclohexanol], for which the pIC50 with M-NFS-60 cells is 6.40 to 7.30; on CSF1R, 6.70 to 7.30. The negative logarithm of the Kd (pKd) at PDGFRβ is 6.30 to 7.30. The “Kinase specificity S(10)” value in assay [1] is “A (A≤0.01)”.
The like results for `COc1nc2c(cc1Br)ncn2Cc1ccc2nc(N[C@@H]3CCCC[C@H]3O)sc2c1` [Example 123, (1R,2R)-2-((6-((6-bromo-5-methoxy-3H-imidazo[4,5-b]pyridin-3-yl)methyl)benzo[d]thiazol-2-yl)amino)cyclohexanol] were, in that order, 6.40 to 7.30, 6.70 to 7.30, not below 7.30 and “B (0.01<B≤0.02)”.
As for `N#Cc1cnc2c(c1)ncn2Cc1ccc2nc(N[C@@H]3CCCC[C@H]3O)oc2c1` [Example 124, 3-((2-(((1R,2R)-2-hydroxycyclohexyl)amino)benzo[d]oxazol-6-yl)methyl)-3H-imidazo[4,5-b]pyridine-6-carbonitrile], the pIC50 is 6.40 to 7.30 with M-NFS-60 cells and 6.70 to 7.30 at CSF1R. Besides, the negative-log Kd (pKd) at PDGFRβ was not below 7.30. Also, the “Kinase specificity S(10)” value in assay [1] is listed as “B (0.01<B≤0.02)”.
For `O[C@@H]1CCCC[C@H]1Nc1nc2ccc(Cc3cnc4cnccn34)cc2s1` [Example 125, (1R,2R)-2-((6-(imidazo[1,2-a]pyrazin-3-ylmethyl)benzo[d]thiazol-2-yl)amino)cyclohexanol], the negative-log IC50 (pIC50) with M-NFS-60 cells is 5.82 to 6.40; at CSF1R, 6.70 to 7.30. The molecule further had a pKd at PDGFRβ of 6.30 to 7.30. Besides, the “Kinase specificity S(10)” value in assay [1] was “B (0.01<B≤0.02)”.
For the molecule `COc1nc2c(cc1C#N)ncn2Cc1ccc2nc(N[C@@H]3CCCC[C@H]3O)sc2c1` [Example 126, 3-((2-(((1R,2R)-2-hydroxycyclohexyl)amino)benzo[d]thiazol-6-yl)methyl)-5-methoxy-3H-imidazo[4,5-b]pyridine-6-carbonitrile], the pIC50 in the assay with M-NFS-60 cells is 6.40 to 7.30; on CSF1R it was not below 7.30. This molecule had a pKd at PDGFRβ of 6.30 to 7.30. Further, in assay [1], the “Kinase specificity S(10)” value was “A (A≤0.01)”.
Taken in the same sequence, the figures for `Cc1ccc2c(c1)ncn2Cc1ccc2nc(N[C@@H]3CCCC[C@H]3O)sc2c1` [Example 127, (1R,2R)-2-((6-((5-methyl-1H-benzo[d]imidazol-1-yl)methyl)benzo[d]thiazol-2-yl)amino)cyclohexanol] were 6.40 to 7.30, 6.70 to 7.30, not below 7.30 and “A (A≤0.01)”.
On to `O[C@@H]1CCCC[C@H]1Nc1nc2ccc(Cn3cnc4cc(F)c(F)cc43)cc2s1` [Example 128, (1R,2R)-2-((6-((5,6-difluoro-1H-benzo[d]imidazol-1-yl)methyl)benzo[d]thiazol-2-yl)amino)cyclohexanol], for which the negative-log IC50 (pIC50) with M-NFS-60 cells was 5.82 to 6.40; on CSF1R it was 6.30 to 6.70. The same molecule had a pKd on PDGFRβ of 6.30 to 7.30. The “Kinase specificity S(10)” value in assay [1] is “B (0.01<B≤0.02)”.

For the origin of these results see US9938261B2, “Heterocyclic compounds and methods of use thereof” (AMBIT BIOSCIENCES CORPORATION, priority 2011, dated 2018).
